Our source for the IC50 values is article PMC10140934, “In Vitro and In Silico Studies on Angiotensin I-Converting Enzyme Inhibitory Peptides Found in Hydrophobic Domains of Porcine Elastin” (Molecules, 2023).

The target in this assay is T1, ACE (from rabbit lung) (Oryctolagus cuniculus, UniProt P12822).
T1 construct: ACE (20 mU/mL, from rabbit lung) was used for the enzyme solution; from tissue; host or cells: rabbit lung
T1 sequence (P12822 34-1310): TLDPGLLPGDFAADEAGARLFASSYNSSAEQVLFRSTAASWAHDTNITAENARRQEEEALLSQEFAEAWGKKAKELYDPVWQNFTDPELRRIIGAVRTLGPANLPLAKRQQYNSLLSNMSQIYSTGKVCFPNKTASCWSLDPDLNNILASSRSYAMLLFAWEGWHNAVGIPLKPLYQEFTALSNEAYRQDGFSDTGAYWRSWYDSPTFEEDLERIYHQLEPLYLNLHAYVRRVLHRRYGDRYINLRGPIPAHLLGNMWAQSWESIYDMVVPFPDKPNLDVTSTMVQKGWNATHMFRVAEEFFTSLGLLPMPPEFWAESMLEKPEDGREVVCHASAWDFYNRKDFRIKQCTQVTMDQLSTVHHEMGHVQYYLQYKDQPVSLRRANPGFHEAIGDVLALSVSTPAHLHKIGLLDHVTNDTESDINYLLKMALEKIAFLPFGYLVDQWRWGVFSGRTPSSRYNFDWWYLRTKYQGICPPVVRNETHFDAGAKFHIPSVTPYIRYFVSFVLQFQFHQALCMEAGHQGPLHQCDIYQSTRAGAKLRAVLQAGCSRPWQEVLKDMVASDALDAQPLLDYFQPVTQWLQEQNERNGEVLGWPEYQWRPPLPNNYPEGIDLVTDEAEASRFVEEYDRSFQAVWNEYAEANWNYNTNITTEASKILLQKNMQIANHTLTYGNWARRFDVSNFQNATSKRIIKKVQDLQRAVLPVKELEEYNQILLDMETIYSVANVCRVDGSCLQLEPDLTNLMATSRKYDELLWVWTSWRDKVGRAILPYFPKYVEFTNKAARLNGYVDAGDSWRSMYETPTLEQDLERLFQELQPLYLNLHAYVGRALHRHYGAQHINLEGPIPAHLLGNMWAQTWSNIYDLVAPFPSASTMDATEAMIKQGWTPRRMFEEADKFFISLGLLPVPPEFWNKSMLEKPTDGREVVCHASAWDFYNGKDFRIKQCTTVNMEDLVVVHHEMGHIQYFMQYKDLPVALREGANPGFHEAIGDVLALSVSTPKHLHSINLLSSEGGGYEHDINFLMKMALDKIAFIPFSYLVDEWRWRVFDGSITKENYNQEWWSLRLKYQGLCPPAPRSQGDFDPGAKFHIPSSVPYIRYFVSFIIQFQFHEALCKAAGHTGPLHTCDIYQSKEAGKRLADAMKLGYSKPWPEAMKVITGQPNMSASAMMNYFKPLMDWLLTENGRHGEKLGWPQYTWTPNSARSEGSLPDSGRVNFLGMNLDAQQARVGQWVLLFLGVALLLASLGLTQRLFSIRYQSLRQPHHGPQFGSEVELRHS
The experiment in a line: Assay of ACE inhibitory activity (HHL substrate, o-phthalaldehyde fluorescence). It is filed as biochemical. To be noted: pH 8.3, 37 °C, n = 3. The protocol: The ACE inhibitory activity of newly synthesized peptides was measured under the following condition by using Nakano et al.’s method. ACE (20 mU/mL, from rabbit lung) was used for the enzyme solution and 100 mM hippuryl-histidyl-leucine (HHL) was used for the substrate solution. Each solution was prepared in 0.1 M HEPES buffer (pH 8.3, 0.3 M NaCl, 0.01% Triton-X). Both enzyme solution (25 μL) and sample solution (20 μL) were preincubated at 37 °C for 5 min. A total of 100 mM HHL substrate solution (25 μL) was added and incubated at 37 °C for 30 min. The reaction was stopped by the addition of 100 mM NaOH solution (25 μL), followed by the addition of 1% o-phthalaldehyde in methanol (25 μL) and maintained at room temperature for 20 min. Next, 100 mM HCl (25 μL) was added and further maintained at room temperature for 10 min. The amount of His-Leu cleaved from the substrate by ACE was determined by measuring the fluorescence intensity of the product reacted with o-phthalaldehyde (excitation wavelength 370 nm, emission wavelength 460 nm) in a microplate reader. ACE inhibitory activity was calculated by the following formula:a ACE inhibitory activity (%) = [1 − (a − c)/(b − d)] × 100(1) where a is the fluorescence intensity in the presence of both ACE and the inhibitor, b is the fluorescence intensity in the presence of ACE without the inhibitor, c is the fluorescence intensity in the presence of the inhibitor without ACE, and d is the fluorescence intensity in the absence of both ACE and the inhibitor. ACE inhibitory activity was expressed by IC50 value: the concentration of inhibition required to inhibit 50% of the ACE activity, and each IC50 value was measured three times.

Residues, ends and D or L forms follow the SMILES beside them. No end group written: not given here.

As to `C[C@H](NC(=O)CN)C(=O)N1CCC[C@H]1C(=O)O` [GAP] (H-Gly-Ala-Pro-OH), inhibition was half-maximal at 35 µM (IC50). This counts as double-digit micromolar. As to `C[C@@H](O)[C@H](N)C(=O)N[C@@H](CCCNC(=N)N)C(=O)N1CCC[C@H]1C(=O)O` [TRP] (H-Thr-Arg-Pro-OH), half-maximal inhibition (IC50) required 1.3 µM. As for `CC(C)[C@H](N)C(=O)N[C@@H](C)C(=O)O` [VA] (H-Val-Ala-OH), the figure is 326 µM. As for `CC(C)C[C@H](NC(=O)CN)C(=O)NCC(=O)O` [GLG] (H-Gly-Leu-Gly-OH), the figure is 485 µM.

On to `CC(C)[C@H](N)C(=O)N[C@@H](CO)C(=O)N1CCC[C@H]1C(=O)O` [VSP] (H-Val-Ser-Pro-OH), for which the IC50 – broadly, the concentration that gives 50% inhibition – was determined as 10.4 µM. The same measure for `CC(C)[C@H](NC(=O)CN)C(=O)NCC(=O)O` [GVG] (H-Gly-Val-Gly-OH): 369 µM; for VAPGVG [VAPGVG]: 906 µM; for `C[C@H](N)C(=O)N1CCC[C@H]1C(=O)O` [AP] (H-Ala-Pro-OH): 230 µM.

`CC(C)[C@H](N)C(=O)N[C@@H](C)C(=O)N1CCC[C@H]1C(=O)O` [VAP] (H-Val-Ala-Pro-OH) registered an IC50 of 1 µM.
